Structures can show the parent of a compound that is named as a salt. Where two headings read alike, the source gives them in different places.

For 23 compounds, EC50 and Ki results are on record in patent publication US7919508B2, “3-piperidinylisochroman-5-ols as dopamine agonists” (Aventis Pharmaceuticals Inc., priority 2004, dated 2011).

In experiment [1] the target is T1, D1 receptor (Homo sapiens, UniProt P21728).
T1 construct: expressed in transfected cells; host or cells: D1 transfected CHO cell line
Put plainly: D1 Activation Adenylyl Cyclase Assay (cAMP FlashPlate, D1 transfected CHO cell line). The format is cell-based. The procedure, abridged: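 D1-transfected CHO cells (50,000/well) were exposed to compound 1/10 serial dilutions for 8 min at RT; cAMP measured by competitive 125I-cAMP FlashPlate against a standard curve. Response normalised between basal and saturating D1 agonist; EC50 at half-maximal stimulation, plateau reported as % maximal dopamine stimulation.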

The target in experiment [2] is human dopamine D2Long (D2L) receptors (Homo sapiens, UniProt P14416).
The target of experiment [3] is T2, human dopamine D1 receptor (Homo sapiens, UniProt P21728).
T2 construct: A 1.4 Kb Hind III to Xho I fragment was subcloned into the vector pMMLV; expressed in transfected cells; host or cells: CHO cells, clone CHO-D1M#9 (plasmid pHD1MMLV), membranes
Kind of experiment: [3H]-SCH-23390 binding to cloned human dopamine D1 receptors (CHO cell membranes).

Where [4] appears, read: agonist activity at the D1 receptor, adenylate cyclase assay, D1 transfected CHO cell line, read-out: D1 EC50.
The mark [5] stands for this setting: competitive binding, [3H]-SCH-23390, cloned human D1 in CHO membranes, read-out: D1 affinity Ki.

Sequence of human dopamine D2Long (D2L) receptors (P14416 whole entry): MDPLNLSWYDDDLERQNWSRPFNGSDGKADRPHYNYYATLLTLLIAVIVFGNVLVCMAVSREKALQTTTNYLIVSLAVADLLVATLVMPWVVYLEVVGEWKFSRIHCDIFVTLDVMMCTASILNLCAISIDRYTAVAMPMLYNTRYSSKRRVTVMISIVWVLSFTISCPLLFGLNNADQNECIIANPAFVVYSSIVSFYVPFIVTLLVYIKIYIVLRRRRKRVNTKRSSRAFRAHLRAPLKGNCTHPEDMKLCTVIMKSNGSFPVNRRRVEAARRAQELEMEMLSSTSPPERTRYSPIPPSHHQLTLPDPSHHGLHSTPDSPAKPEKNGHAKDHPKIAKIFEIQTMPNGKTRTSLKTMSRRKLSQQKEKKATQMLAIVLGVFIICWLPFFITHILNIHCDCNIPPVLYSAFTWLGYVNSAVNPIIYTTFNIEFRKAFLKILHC
T1 sequence (P21728 whole entry): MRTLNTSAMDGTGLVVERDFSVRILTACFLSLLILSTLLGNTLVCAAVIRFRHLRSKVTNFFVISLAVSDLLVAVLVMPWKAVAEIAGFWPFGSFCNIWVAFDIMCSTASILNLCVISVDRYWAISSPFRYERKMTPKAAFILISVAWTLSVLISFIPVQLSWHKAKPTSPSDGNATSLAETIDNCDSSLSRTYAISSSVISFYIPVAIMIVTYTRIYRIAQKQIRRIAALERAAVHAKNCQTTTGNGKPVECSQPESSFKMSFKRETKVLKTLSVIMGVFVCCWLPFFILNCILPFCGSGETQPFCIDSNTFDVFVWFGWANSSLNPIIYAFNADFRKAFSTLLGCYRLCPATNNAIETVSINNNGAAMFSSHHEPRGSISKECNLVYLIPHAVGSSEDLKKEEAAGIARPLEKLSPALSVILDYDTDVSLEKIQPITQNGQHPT
T2 sequence (P21728 whole entry, the tested form may be a part): as the sequence (P21728 whole entry) above

On to `Cc1ccc2c(c1O)C[C@@H](C1CCN(CCC(C)c3noc4cc(F)ccc34)CC1)O[C@H]2CN` (stereo partly drawn) [Example 104, (1R,3S)-1-Aminomethyl-3-{1-[3-(6-fluoro-benzo[d]isoxazol-3-yl)butyl]piperidin-4-yl}-6-methylisochroman-5-ol dihydrochloride], for which the EC50 in experiment [1] (setting [4]) came to 116 nM. In addition, the Ki was found to be 122 nM in experiment [2] and 70 nM in experiment [3] (setting [5]).
With `Cc1ccc2c(c1O)C[C@@H](C1CCN(CCc3ccccc3)CC1)O[C@H]2CN` [Example 106, (1R,3S)-1-Aminomethyl-6-methyl-3-(1-phenethyl-piperidin-4-yl)-isochroman-5-ol dihydrobromide], the EC50 in experiment [1] (setting [4]) came out at 29 nM. The inhibitory constant (Ki) in experiment [2] came out at 278 nM; in experiment [3] (setting [5]) it was 45 nM.
Regarding `Cc1ccc2c(c1O)C[C@@H](C1CCN(CCc3cccc(Cl)c3)CC1)O[C@H]2CN` [Example 107, (1R,3S)-1-Aminomethyl-3-{1-[2-(3-chloro-phenyl)-ethyl]-piperidin-4-yl}-6-methyl-isochroman-5-ol dihydrobromide], in experiment [1] (setting [4]), the concentration giving a half-maximal response (EC50) amounted to 140 nM. For the same compound, the Ki in experiment [2] was at least 10000 nM; in experiment [3] (setting [5]) it was 926 nM.
Consider `Cc1ccc2c(c1O)C[C@@H](C1CCN(C/C=C/c3ccccc3)CC1)O[C@H]2CN` [Example 109, (1R,3S)-1-Aminomethyl-6-methyl-3-[1-(3-phenyl-allyl)-piperidin-4-yl]-isochroman-5-ol dihydrobromide], for which, in experiment [1] (setting [4]), the 50% effective concentration (EC50) came out at 102 nM. Besides, the figures for the inhibition constant Ki in experiment [2] and in experiment [3] (setting [5]) were 212 nM and 108 nM, respectively.
As for `Cc1ccc2c(c1O)C[C@@H](C1CCN(C(=O)OC(C)C)CC1)O[C@H]2CN` [Example 111, 4-((1R,3S)-1-Aminomethyl-5-hydroxy-6-methyl-isochroman-3-yl)-piperidine-1-carboxylic acid isopropyl ester hydrochloride], in experiment [1] (setting [4]), the 50% effective concentration (EC50) stood at 49 nM. Besides, the Ki in experiment [2] was found to be 794 nM; in experiment [3] (setting [5]), 165 nM.
Turning to `COC(=O)N1CCC([C@@H]2Cc3c(ccc(C)c3O)[C@H](CN)O2)CC1` [Example 112, 4-((1R,3S)-1-Aminomethyl-5-hydroxy-6-methyl-isochroman-3-yl)-piperidine-1-carboxylic acid methyl ester hydrochloride], the EC50 in experiment [1] (setting [4]) was found to be 0.6 nM. Further, the values for the inhibitory constant (Ki) in experiment [2] and in experiment [3] (setting [5]) were at least 100000 nM and 101 nM, respectively.
On to `Cc1ccc2c(c1O)C[C@@H](C1CCN(C(=O)Oc3ccccc3)CC1)O[C@H]2CN` [Example 113, 4-((1R,3S)-1-Aminomethyl-5-hydroxy-6-methyl-isochroman-3-yl)-piperidine-1-carboxylic acid phenyl ester hydrochloride], for which, in experiment [1], the response was half-maximal at 4.2 nM (EC50). The Ki in experiment [2] is at least 100000 nM; in experiment [3] it was 30.5 nM.
Take `Cc1ccc(OC(=O)N2CCC([C@@H]3Cc4c(ccc(C)c4O)[C@H](CN)O3)CC2)cc1` [Example 114, 4-((1R,3S)-1-Aminomethyl-5-hydroxy-6-methyl-isochroman-3-yl)-piperidine-1-carboxylic acid p-tolyl ester hydrochloride]: the half-maximal effective concentration (EC50) in experiment [1] came out at 0.85 nM. In addition, the Ki in experiment [2] came out at 511 nM; in experiment [3] it was 64.6 nM.
For `Cc1ccc2c(c1O)C[C@@H](C1CCN(C(=O)Oc3ccc(Cl)cc3)CC1)O[C@H]2CN` [Example 115, 4-((1R,3S)-1-Aminomethyl-5-hydroxy-6-methyl-isochroman-3-yl)-piperidine-1-carboxylic acid 4-chloro-phenyl ester hydrochloride], in that order: 48 nM, 506 nM and 39 nM.
In turn, `Cc1ccc2c(c1O)C[C@@H](C1CCN(C(=O)Oc3ccccc3Cl)CC1)O[C@H]2CN` [Example 116, 4-((1R,3S)-1-Aminomethyl-5-hydroxy-6-methyl-isochroman-3-yl)-piperidine-1-carboxylic acid 2-chloro-phenyl ester hydrochloride] registered a concentration giving a half-maximal response (EC50) in experiment [1] of 4.6 nM. The values for the Ki in experiment [2] and in experiment [3] were at least 100000 nM and 32.6 nM, respectively.
As for `Cc1ccc2c(c1O)C[C@@H](C1CCN(C(=O)Oc3ccc(Br)cc3)CC1)O[C@H]2CN` [Example 117, 4-((1R,3S)-1-Aminomethyl-5-hydroxy-6-methyl-isochroman-3-yl)-piperidine-1-carboxylic acid 4-bromo-phenyl ester hydrochloride], the 50% effective concentration (EC50) in experiment [1] is 4.3 nM. The results for the Ki in experiment [2] and in experiment [3] were 404 nM and 59 nM, respectively.
As to `Cc1ccc2c(c1O)C[C@@H](C1CCN(C(=O)Oc3ccc(F)cc3)CC1)O[C@H]2CN` [Example 118, 4-((1R,3S)-1-Aminomethyl-5-hydroxy-6-methyl-isochroman-3-yl)-piperidine-1-carboxylic acid 4-fluoro-phenyl ester hydrochloride], a half-maximal effect in experiment [1] (EC50) was put at 8.5 nM. Also, the Ki is at least 10000 nM in experiment [2] and 40 nM in experiment [3].
Take `Cc1ccc2c(c1O)C[C@@H](C1CCN(C(=O)Oc3ccccc3C(F)(F)F)CC1)O[C@H]2CN` [Example 119, 4-((1R,3S)-1-Aminomethyl-5-hydroxy-6-methyl-isochroman-3-yl)-piperidine-1-carboxylic acid 2-trifluoromethyl-phenyl ester hydrochloride]: the EC50 in experiment [1] worked out at 3.1 nM. Besides, the Ki in experiment [2] was determined as 649 nM; in experiment [3], 54 nM.
On to `COc1ccc(OC(=O)N2CCC([C@@H]3Cc4c(ccc(C)c4O)[C@H](CN)O3)CC2)cc1` [Example 120, 4-((1R,3S)-1-Aminomethyl-5-hydroxy-6-methyl-isochroman-3-yl)-piperidine-1-carboxylic acid 4-methoxy-phenyl ester hydrochloride], for which the response in experiment [1] was half-maximal at 36 nM (EC50). In addition, the Ki came out at 767 nM in experiment [2] and 45 nM in experiment [3].
On to `Cc1ccc2c(c1O)C[C@@H](C1CCN(C(=O)Oc3ccccc3O)CC1)O[C@H]2CN` [Example 121, 4-((1R,3S)-1-Aminomethyl-5-hydroxy-6-methyl-isochroman-3-yl)-piperidine-1-carboxylic acid 2-hydroxy-phenyl ester hydrochloride], for which the response in experiment [1] was half-maximal at 2.5 nM (EC50). In addition, the Ki in experiment [2] turned out to be 613 nM; in experiment [3] it was 31 nM.
For `Cc1ccc2c(c1O)C[C@@H](C1CCN(C(=O)Oc3ccc4ccccc4c3)CC1)O[C@H]2CN` [Example 123, 4-((1R,3S)-1-Aminomethyl-5-hydroxy-6-methyl-isochroman-3-yl)-piperidine-1-carboxylic acid naphthalen-2-yl ester hydrochloride] the same measures were 10 nM, 154 nM and 37 nM.
On to `Cc1ccc2c(c1O)C[C@@H](C1CCN(C(=O)Nc3cc(C(F)(F)F)ccc3F)CC1)O[C@H]2CN` [Example 124, 4-((1R,3S)-1-Aminomethyl-5-hydroxy-6-methyl-isochroman-3-yl)-piperidine-1-carboxylic acid (2-fluoro-5-trifluoromethyl-phenyl)-amide hydrobromide], for which the half-maximal effective concentration (EC50) in experiment [1] (setting [4]) turned out to be 20 nM. The inhibition constant (Ki) was at least 10000 nM in experiment [2] and 486 nM in experiment [3] (setting [5]).
Turning to `COc1cccc(NC(=O)N2CCC([C@@H]3Cc4c(ccc(C)c4O)[C@H](CN)O3)CC2)c1` [Example 125, 4-((1R,3S)-1-Aminomethyl-5-hydroxy-6-methyl-isochroman-3-yl)-piperidine-1-carboxylic acid (3-methoxy-phenyl)-amide], the EC50 in experiment [1] (setting [4]) is 60 nM. Moreover, the values for the Ki in experiment [2] and in experiment [3] (setting [5]) were at least 10000 nM and 79 nM, respectively.
Regarding `Cc1ccc2c(c1O)C[C@@H](C1CCN(C(=O)Nc3cccc(O)c3)CC1)O[C@H]2CN` [Example 126, 4-((1R,3S)-1-Aminomethyl-5-hydroxy-6-methyl-isochroman-3-yl)-piperidine-1-carboxylic acid (3-hydroxy-phenyl)-amide], the EC50 in experiment [1] (setting [4]) was 1.7 nM. Moreover, the Ki in experiment [2] amounted to 328 nM; in experiment [3] (setting [5]), 21 nM.
In the case of `Cc1ccc2c(c1O)C[C@@H](C1CCN(C(=O)Nc3ccc(F)cc3)CC1)O[C@H]2CN` [Example 128, 4-((1R,3S)-1-Aminomethyl-5-hydroxy-6-methyl-isochroman-3-yl)-piperidine-1-carboxylic acid (4-fluoro-phenyl)-amide hydrochloride], the EC50 in experiment [1] (setting [4]) was 6000 nM. Besides, the Ki in experiment [2] is at least 10000 nM; in experiment [3] (setting [5]) it was 106 nM.
As for `Cc1ccc2c(c1O)C[C@@H](C1CCN(C(=O)Nc3ccccc3F)CC1)O[C@H]2CN` [Example 129, 4-((1R,3S)-1-Aminomethyl-5-hydroxy-6-methyl-isochroman-3-yl)-piperidine-1-carboxylic acid (2-fluoro-phenyl)-amide hydrochloride], the concentration giving a half-maximal response (EC50) in experiment [1] (setting [4]) amounted to 2000 nM. In addition, the figures for the Ki in experiment [2] and in experiment [3] (setting [5]) were at least 10000 nM and 113 nM, respectively.
As for `Cc1ccc2c(c1O)C[C@@H](C1CCN(C(=O)N(C)c3ccccc3)CC1)O[C@H]2CN` [Example 131, 4-((1R,3S)-1-Aminomethyl-5-hydroxy-6-methyl-isochroman-3-yl)-piperidine-1-carboxylic acid methyl-phenyl-amide hydrochloride], the half-maximal effective concentration (EC50) in experiment [1] (setting [4]) was found to be 6.4 nM. In addition, the Ki was at least 10000 nM in experiment [2] and 51 nM in experiment [3] (setting [5]).
Turning to `Cc1ccc2c(c1O)C[C@@H](C1CCN(C(=O)N3CCCC3)CC1)O[C@H]2CN` [Example 135, [4-((1R,3S)-1-Aminomethyl-5-hydroxy-6-methyl-isochroman-3-yl)-piperidin-1-yl]-pyrrolidin-1-yl-methanone hydrochloride], the EC50 in experiment [1] (setting [4]) came out at 2.8 nM. Also, the Ki in experiment [2] was at least 100000 nM; in experiment [3] (setting [5]) it was 61.5 nM.

As a reminder, the EC50 is the midpoint of the concentration-response curve. Usually Ki stands for a measure of affinity in units of concentration, obtained from inhibition or displacement.
